These molecules were tested on Acinetobacter baumannii ATCC17961 (assay: Antimicrobial susceptibility testing: 90% growth inhibitory concentration (IC90) determination). Details: ATCC17961, 90% growth inhibitory concentration, Iso-Sensitest broth, OD 600 nm over 16 h, 35±2° C., read-out: ATCC 17961 IC90.
Type: cell-based
Protocol: Assay Procedures Antimicrobial Susceptibility Testing: 90% Growth Inhibitory Concentration (IC90) Determination
The in vitro antimicrobial activity of the compounds was determined according to the following procedure:
The assay used a 10-points Iso-Sensitest broth medium to measure quantitatively the in vitro activity of the compounds against Acinetobacter baumannii ATCC17961.
Stock compounds in DMSO were serially twofold diluted (e.g. range from 50 to 0.097 μM final concentration) in 384 wells microtiter plates and inoculated with 49 μl the bacterial suspension in Iso-Sensitest medium to have a final cell concentration of ˜5×10^5 CFU/ml in a final volume/well of 50 μl/well. Microtiter plates were incubated at 35±2° C.
Bacterial cell growth was determined with the measurement of optical density at λ=600 nm each 20 minutes over a time course of 16 h. Growth inhibition was calculated during the logarithmic growth of the bacterial cells with determination of the concentration inhibiting 50% (IC50) and 90% (IC90) of the growth.
Table 1 provides the 90% growth inhibitory concentrations (IC90) in micromoles per liter of the compounds of present invention obtained against the strain Acinetobacter baumannii ATCC17961.

| SMILES | IC90 [µM] |
| --- | --- |
| CN(C)c1nc(F)c(-c2cnc(C(=O)Nc3ccc(C(=O)N4CCN(C(=O)C5CC[N+](C)(C)CC5)CC4)c(Cl)c3)n2C)cc1F [Example D4, N-[3-chloro-4-[4-(1,1-dimethylpiperidin-1-ium-4-carbonyl)piperazine-1-carbonyl]phenyl]-5-[6-(dimethylamino)-2,5-difluoro-3-pyridyl]-1-methyl-imidazole-2-carboxamide] | 0.6 |
| CN(C)c1nc(F)c(-c2cnc(C(=O)Nc3ccc(C(=O)N4CCN(C(=O)C5CC[N+](C)(C)C5)CC4)c(Cl)c3)n2C)cc1F (stereo not shown) [Example D5, N-[3-chloro-4-[4-(1,1-dimethylpyrrolidin-1-ium-3-carbonyl)piperazine-1-carbonyl]phenyl]-5-[6-(dimethylamino)-2,5-difluoro-3-pyridyl]-1-methyl-imidazole-2-carboxamide] | 0.59 |
| CN(C)c1nc(F)c(-c2cnc(C(=O)Nc3ccc(C(=O)N4CCN(C(=O)CC5CC[N+](C)(C)CC5)CC4)c(Cl)c3)n2C)cc1F [Example D7, N-[3-chloro-4-[4-[2-(1,1-dimethylpiperidin-1-ium-4-yl)acetyl]piperazine-1-carbonyl]phenyl]-5-[6-(dimethylamino)-2,5-difluoro-3-pyridyl]-1-methyl-imidazole-2-carboxamide] | 0.76 |
| CN(C)c1nc(F)c(-c2cnc(C(=O)Nc3ccc(C(=O)N4CCN(C(=O)C5CC(C[N+](C)(C)C)C5)CC4)c(Cl)c3)n2C)cc1F (stereo not shown) [Example D11, [3-[4-[2-chloro-4-[[5-[6-(dimethylamino)-2,5-difluoro-3-pyridyl]-1-methyl-imidazole-2-carbonyl]amino]benzoyl]piperazine-1-carbonyl]cyclobutyl]methyl-trimethyl-ammonium] | 1.5 |
| CN(C)c1nc(F)c(-c2cnc(C(=O)Nc3ccc(C(=O)NC4CCN(C(=O)[C@@H]5C[C@@H](O)C[N+]5(C)C)CC4)c(Cl)c3)n2C)cc1F [Example D12, N-[3-chloro-4-[[1-[(2S,4R)-4-hydroxy-1,1-dimethyl-pyrrolidin-1-ium-2-carbonyl]-4-piperidyl]carbamoyl]phenyl]-5-[6-(dimethylamino)-2,5-difluoro-3-pyridyl]-1-methyl-imidazole-2-carboxamide] | 2.8 |
| CN(C)c1nc(F)c(-c2cnc(C(=O)Nc3ccc(C(=O)N4CCC(C(=O)NC5CC[N+](C)(C)C5)CC4)c(Cl)c3)n2C)cc1F (stereo not shown) [Example D13, 1-[2-chloro-4-[[5-[6-(dimethylamino)-2,5-difluoro-3-pyridyl]-1-methyl-imidazole-2-carbonyl]amino]benzoyl]-N-(1,1-dimethylpyrrolidin-1-ium-3-yl)piperidine-4-carboxamide] | 0.73 |
| CNc1nc(F)c(-c2cnc(C(=O)Nc3ccc(C(=O)N4CCN(C(=O)C5CCNCC5)CC4)c(Cl)c3)n2C)cc1F [Example E1, N-[3-chloro-4-[4-(piperidine-4-carbonyl)piperazine-1-carbonyl]phenyl]-5-[2,5-difluoro-6-(methylamino)-3-pyridyl]-1-methyl-imidazole-2-carboxamide] | 1.2 |
| CN(C)c1nc(F)c(-c2cnc(C(=O)Nc3ccc(C(=O)N4CCN(C(=O)C5CCNCC5)CC4)c(Cl)c3)n2C)cc1F [Example E2, N-[3-chloro-4-[4-(piperidine-4-carbonyl)piperazine-1-carbonyl]phenyl]-5-[6-(dimethylamino)-2,5-difluoro-3-pyridyl]-1-methyl-imidazole-2-carboxamide] | 0.19 |
| CN(C)c1ccc(-c2cnc(C(=O)Nc3ccc(C(=O)N4CCN(C(=O)C5CCNCC5)CC4)c(Cl)c3)n2C)c(F)n1 [Example E3, N-[3-chloro-4-[4-(piperidine-4-carbonyl)piperazine-1-carbonyl]phenyl]-5-[6-(dimethylamino)-2-fluoro-3-pyridyl]-1-methyl-imidazole-2-carboxamide] | 0.47 |
| Cc1nc(N(C)C)ccc1-c1cnc(C(=O)Nc2ccc(C(=O)N3CCN(C(=O)C4CCNCC4)CC3)c(Cl)c2)n1C [Example E4, N-[3-chloro-4-[4-(piperidine-4-carbonyl)piperazine-1-carbonyl]phenyl]-5-[6-(dimethylamino)-2-methyl-3-pyridyl]-1-methyl-imidazole-2-carboxamide] | 1.4 |
| CN(C)c1ccc(-c2cnc(C(=O)Nc3ccc(C(=O)N4CCN(C(=O)C5CCNCC5)CC4)c(Cl)c3)n2C)c(Cl)n1 [Example E5, 5-[2-chloro-6-(dimethylamino)-3-pyridyl]-N-[3-chloro-4-[4-(piperidine-4-carbonyl)piperazine-1-carbonyl]phenyl]-1-methyl-imidazole-2-carboxamide] | 0.47 |

Results, then the molecule that gave them:

| IC90 [µM] | SMILES |
| --- | --- |
| 0.27 | CN(C)c1nc(F)c(-c2cnc(C(=O)Nc3ccc(C(=O)N4CCN(C(=O)C5(O)CCNCC5)CC4)c(Cl)c3)n2C)cc1F [Example F1, N-[3-chloro-4-[4-(4-hydroxypiperidine-4-carbonyl)piperazine-1-carbonyl]phenyl]-5-[6-(dimethylamino)-2,5-difluoro-3-pyridyl]-1-methyl-imidazole-2-carboxamide] |
| 0.23 | CN(C)c1nc(F)c(-c2cnc(C(=O)Nc3ccc(C(=O)N4CCN(C(=O)C[C@@H]5CCNC5)CC4)c(Cl)c3)n2C)cc1F [Example F2, N-[3-chloro-4-[4-[2-[(3S)-pyrrolidin-3-yl]acetyl]piperazine-1-carbonyl]phenyl]-5-[6-(dimethylamino)-2,5-difluoro-3-pyridyl]-1-methyl-imidazole-2-carboxamide] |
| 0.43 | CN(C)c1nc(F)c(-c2cnc(C(=O)Nc3ccc(C(=O)N4CCN(C(=O)CC5(O)CCNCC5)CC4)c(Cl)c3)n2C)cc1F [Example F3, N-[3-chloro-4-[4-[2-(4-hydroxy-4-piperidyl)acetyl]piperazine-1-carbonyl]phenyl]-5-[6-(dimethylamino)-2,5-difluoro-3-pyridyl]-1-methyl-imidazole-2-carboxamide] |
| 0.74 | CN(C)c1nc(F)c(-c2cnc(C(=O)Nc3ccc(C(=O)N4CCN(C(=O)C5CCNC5)CC4)c(Cl)c3)n2C)cc1F (stereo not shown) [Example F4, N-[3-chloro-4-[4-(pyrrolidine-3-carbonyl)piperazine-1-carbonyl]phenyl]-5-[6-(dimethylamino)-2,5-difluoro-3-pyridyl]-1-methyl-imidazole-2-carboxamide] |
| 0.66 | CN(C)c1nc(F)c(-c2cnc(C(=O)Nc3ccc(C(=O)N4CCN(C(=O)CC5CCNCC5)CC4)c(Cl)c3)n2C)cc1F [Example F6, N-[3-chloro-4-[4-[2-(4-piperidyl)acetyl]piperazine-1-carbonyl]phenyl]-5-[6-(dimethylamino)-2,5-difluoro-3-pyridyl]-1-methyl-imidazole-2-carboxamide] |
| 0.39 | CN(C)c1nc(F)c(-c2cnc(C(=O)Nc3ccc(C(=O)N4CCN(C(=O)C5CC(CN)C5)CC4)c(Cl)c3)n2C)cc1F (stereo not shown) [Example F7, N-[4-[4-[3-(aminomethyl)cyclobutanecarbonyl]piperazine-1-carbonyl]-3-chloro-phenyl]-5-[6-(dimethylamino)-2,5-difluoro-3-pyridyl]-1-methyl-imidazole-2-carboxamide] |
| 1.9 | CN(C)c1nc(F)c(-c2cnc(C(=O)Nc3ccc(C(=O)NC4CCN(C(=O)[C@@H]5C[C@@H](O)CN5)CC4)c(Cl)c3)n2C)cc1F [Example F9, N-[3-chloro-4-[[1-[(2S,4R)-4-hydroxypyrrolidine-2-carbonyl]-4-piperidyl]carbamoyl]phenyl]-5-[6-(dimethylamino)-2,5-difluoro-3-pyridyl]-1-methyl-imidazole-2-carboxamide] |
| 0.64 | CN(C)c1nc(F)c(-c2cnc(C(=O)Nc3ccc(C(=O)N4CCC(C(=O)NC5CCNC5)CC4)c(Cl)c3)n2C)cc1F (stereo not shown) [Example F10, 1-[2-chloro-4-[[5-[6-(dimethylamino)-2,5-difluoro-3-pyridyl]-1-methyl-imidazole-2-carbonyl]amino]benzoyl]-N-pyrrolidin-3-yl-piperidine-4-carboxamide] |

Same assay, conditions: ATCC17961, 16 h, read-out: ATCC 17961 IC90 [μM]

| SMILES | IC90 [µM] |
| --- | --- |
| CN(C)c1nc(F)c(-c2cnc(C(=O)Nc3ccc(C(=O)NC4CC(NC(=O)C[N+](C)(C)C)C4)c(Cl)c3)n2C)cc1F (stereo not shown) [Example D8, [2-[[3-[[2-chloro-4-[[5-[6-(dimethylamino)-2,5-difluoro-3-pyridyl]-1-methyl-imidazole-2-carbonyl]amino]benzoyl]amino]cyclobutyl]amino]-2-oxo-ethyl]-trimethyl-ammonium] | 2.7 |
| CN(C)c1nc(F)c(-c2cnc(C(=O)Nc3ccc(C(=O)N4CCC(NC(=O)C[N+](C)(C)C)CC4)c(Cl)c3)n2C)cc1F [Example D9, [2-[[1-[2-chloro-4-[[5-[6-(dimethylamino)-2,5-difluoro-3-pyridyl]-1-methyl-imidazole-2-carbonyl]amino]benzoyl]-4-piperidyl]amino]-2-oxo-ethyl]-trimethyl-ammonium] | 1.6 |
| CN(C)c1nc(F)c(-c2cnc(C(=O)Nc3ccc(C(=O)NC4CCN(C(=O)CCOCC[N+](C)(C)C)CC4)c(Cl)c3)n2C)cc1F [Example D10, 2-[3-[4-[[2-chloro-4-[[5-[6-(dimethylamino)-2,5-difluoro-3-pyridyl]-1-methyl-imidazole-2-carbonyl]amino]benzoyl]amino]-1-piperidyl]-3-oxo-propoxy]ethyl-trimethyl-ammonium] | 5.6 |
